Read-outs that look alike come from different tables or passages of the source.
What was measured:
[1] = tested on: pERK in MDA-MB-231 cells; experiment: Inhibitory activity at pERK (In Cell Western, MDA-MB-231 cells); type: cell-based; conditions: read-out: MDA-MB-231 pERK IC50
Protocol: Inhibitory Activity of Compounds at pERK
When the cells reach 80% confluency, collect cells by trypsinization and centrifugation at 800 rpm for 3 minutes. Resuspend cells with appropriate volume of medium and count cell numbers. Adjust cell concentration to 70000 cells/mL, and split 100 μL cell suspension per well into 96-well plates. Transfer the plates into cell culture incubator (37° C., 5% CO2) and incubate cells overnight. Discard the medium, wash with PBS once, Prepare compound serial dilutions in culture medium with total 8 compound concentrations at 3-fold serial dilutions (the final top concentration starts from 30 μM). Dispense 75 μL DMEM medium (with 0.1% BSA) and 25 μL of each test compound dilution into corresponding wells with DMSO at 0.3% final concentration. Continue incubating cells in cell culture incubator for additional 2 hrs at 37° C., 5% CO2. Discard culture medium, and wash cells once with PBS. Add 100 μL of 4% formaldehyde solution to each well and fix for 20 min. Discard the formaldehyde, then add 100 μL ice-cold 100% methanol at 4° C. for 20 min. Discard methanol, wash with PBS three times. Add to each well 100 μL of 2% BSA solution, seal for 30 min at room temperature. Discard the BSA solution, add to each well 50 μL of the 1st antibody solution (prepared with 2% BSA, 1:250 dilution), incubate at 4° C. overnight. Discard the 1^St antibody solution, wash with PBS four times. Add to each well […] the 2nd antibody solution (prepared with 1% BSA, 1:1000 dilution), incubate at room temperature for 1 hr. Discard the 2nd antibody solution, wash with PBS four times, add to each well 100 μL PI solution (1.5 μM), incubate at room temperature for 30 min. Use Acumen (TPP) to measure the fluorescence. • [Samples]: Compounds in the examples and sorafenib (positive control) • [Data Analysis]: Use CBIS data analysis software to calculate IC50 values

[2] = tested on: PLC-PRF-5 cells; experiment: Inhibition of proliferation of PLC-PRF-5 cells (ATPlite); type: cell-based; conditions: read-out: PLC-PRF-5 cell proliferation IC50
Excerpt: Inhibitory Activity of Compounds to the Proliferation of PLC-PRF-5 Cells
• [experimental Method]: Use PerKinElmer's ATPlite™ Luminescence ATP Detection Assay System to evaluate the inhibitory activity of compounds to the proliferation of PLC-PRF-5 cells. • [Instruments]: ENVISION plate reader (PerKinElmer) and centrifuge (Thermo Scientific, Sorvall ST16R) • [material]: PLC-PRF-5 cells (ATCC), 96-well plate (Nunc, #165305), DMEM medium (Gibco, #11965-092), PBS (Invitrogen, #10010023), fetal bovine serum (Gibco, #16000044), DMSO (Sigma, #D2650), ATPlite™ Luminescence ATP Detection Assay System (PerkinElmer, #6016949), purified water (Millipore, type: Milli-Q). • [Protocol]: Grow PLC-PRF-5 cells in DMEM supplemented with 10% FBS. When the cells reach 80% confluency, collect cells by trypsinization and centrifugation at 800 rpm for 3 min. Resuspend cells with appropriate volume of medium and count cell numbers. Adjust cell concentration to 50000 cells/mL, and split 160 μL cell suspension per well into 96-well plates. Transfer the plates into cell culture incubator (37° C., 5% CO2) and incubate cells for 2 hrs. Prepare compound serial dilutions in culture medium with total 8 compound concentrations at 3-fold serial dilutions (the final top concentration starts from 30 μM). Dispense 40 μL of each test compound dilution into corresponding wells with DMSO at 0.3% final concentration. Continue incubating cells in cell culture incubator for additional 96 hrs at 37° C., 5% CO2. Discard culture medium, and wash cells once with PBS. Add 50 μL cell lysis buffer per well and shake plates for 5 min at room temperature to ensure complete lysis of cells. Then add 50 μL of substrate solution and shake plates for 1 min at room temperature. Allow the plates to incubate at room temperature for 5 min, followed by recording the luminescence signals using Envision, and subsequent data analysis. • [Samples]: Compounds in the examples and Sorafenib (positive control) • [Data analysis]: Use CBIS data analysis software to calculate IC50 values

[3] = target: KDR kinase (790-1356 AA) (Homo sapiens (Human), UniProt P35968); experiment: Inhibitory activity at KDR kinase (Lance Ultra Ulight-TK assay); type: biochemical
Chain of KDR kinase (790-1356 AA) (P35968 790-1356): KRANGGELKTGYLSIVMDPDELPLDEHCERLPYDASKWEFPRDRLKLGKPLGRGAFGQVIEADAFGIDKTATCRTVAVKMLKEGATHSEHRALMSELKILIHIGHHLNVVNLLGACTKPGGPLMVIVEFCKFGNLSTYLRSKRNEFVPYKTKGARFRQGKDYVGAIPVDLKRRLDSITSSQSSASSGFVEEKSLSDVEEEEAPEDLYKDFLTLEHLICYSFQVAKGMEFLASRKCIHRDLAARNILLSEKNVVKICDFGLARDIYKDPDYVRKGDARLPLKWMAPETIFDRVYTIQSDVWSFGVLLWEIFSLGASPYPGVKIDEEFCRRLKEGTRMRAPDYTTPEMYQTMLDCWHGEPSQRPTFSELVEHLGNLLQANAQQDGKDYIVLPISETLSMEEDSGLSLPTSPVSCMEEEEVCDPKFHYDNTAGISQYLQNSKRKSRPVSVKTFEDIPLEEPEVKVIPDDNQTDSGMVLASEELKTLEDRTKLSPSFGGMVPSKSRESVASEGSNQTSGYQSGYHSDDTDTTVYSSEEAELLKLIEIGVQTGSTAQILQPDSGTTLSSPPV
Protocol: Inhibitory Activity of Compounds at KDR Kinase
• [Experimental method]: Use Lance@Ultra Ulight™-TK assay kit from PerKinElmer to evaluate the inhibitory activity of compounds at KDR kinase. • [Instrument]: PerKinElmer's ENVISION plate reader • [Materials]: Optiplate-384 well plate (PerKinElmer), kinase buffer (50 mM Hepes pH7.5, 0.25 mM EGTA, 2 mM DTT, 0.01% Tween 20, 10 mM Mg^2+, 0.5 mM Mn^2+), KDR kinase (790-1356 AA, Crown Bioscience), KDR kinase substrate (PerKinElmer catalogue # TRF0127-M), Lance@Eu-W1024-anti-phosphotyrosine (PT66) (PerKinElmer, catalogue #AD0068), ATP (Invitrogen), DMSO (Sigma, catalogue #34869), purified water (Millipore, type: Milli-Q). • [Study conditions]: Mix KDR (final concentration: 20 nM) and compound (final DMSO: 0.5%), pre-incubate for 20 min at 30° C.; then add ATP (final concentration: 90 μM) and the substrate (final concentration […]). React for 2 hrs at 30° C. After the reaction, add antibody and reaction for 60 min at 30° C. Read the plate (615 nm, 665 nm), calculate the ratio of the value at 665 nm vs 615 nm and analyze the data. • [Samples]: Compounds in the examples and Sorafenib (positive control) • [Data Analysis]: Use CBIS data analysis software to calculate IC50 values

[4] = Homo sapiens, MDA-MB-231, MDA-MB-231 cells
[5] = Homo sapiens, PLC-PRF-5, PLC-PRF-5 cells

| IC50 [1, 4] [nM] | IC50 [3] [nM] | IC50 ([1]; MDA-MB-231 cells) [nM] | Structure (SMILES) | IC50 [2, 5] [nM] | IC50 ([2]; PLC-PRF-5 cells) [nM] |
| --- | --- | --- | --- | --- | --- |
| 15.5 | 5.4 |  | O=C(Nc1ccc(Cl)c(C(F)(F)F)c1)Nc1cc(Oc2cc(NC(=O)C3CC3)ncn2)ccc1F [Exe. 002, N-[6-[3-[[4-chloro-3-(trifluoromethyl)phenyl]carbamoyl-amino]-4-fluoro-phenoxy]pyrimidin-4-yl]cyclopropanecarboxamide] | 3400 |  |
| 87 | 16.7 |  | Cc1cc(Oc2cc(NC(=O)C3CC3)ncn2)c(F)cc1NC(=O)Nc1ccc(Cl)c(C(F)(F)F)c1 [Exe. 003] | 11500 |  |
| 40.6 | 27 |  | O=C(Nc1cc(F)cc(Oc2cc(NC(=O)C3CC3)ncn2)c1)Nc1ccc(Cl)c(C(F)(F)F)c1 [Exe. 005] | 6000 |  |
| 281 | 25 |  | N#Cc1cc(NC(=O)Nc2ccc(Cl)c(C(F)(F)F)c2)ccc1Oc1cc(NC(=O)C2CC2)ncn1 [Exe. 006] | 5380 |  |
| 261 | 13.4 |  | Cc1nc(NC(=O)Nc2ccc(Cl)c(C(F)(F)F)c2)ccc1Oc1cc(NC(=O)C2CC2)ncn1 [Exe. 011] | 19500 |  |
| 71 | 9.9 |  | O=C(Nc1cccc(Oc2cc(NC(=O)C3CC3)ncn2)c1)Nc1ccc(Cl)c(C(F)(F)F)c1 [Exe. 012] | 10300 |  |
| 50 | 14.2 |  | O=C(Nc1ccc(F)c(Oc2cc(NC(=O)C3CC3)ncn2)c1)Nc1ccc(Cl)c(C(F)(F)F)c1 [Exe. 013] | 16100 |  |
| 48.5 | 7 |  | Cc1ccc(Oc2cc(NC(=O)C3CC3)ncn2)cc1NC(=O)Nc1ccc(Cl)c(C(F)(F)F)c1 [Exe. 014] | 8700 |  |
| 94 | 4.2 |  | O=C(Nc1ccc(Oc2cc(NC(=O)C3CC3)ncn2)nc1)Nc1ccc(Cl)c(C(F)(F)F)c1 [Exe. 015] | 6500 |  |
| 55 | 9.4 |  | Cc1cc(Oc2cc(NC(=O)C3CC3)ncn2)ncc1NC(=O)Nc1ccc(Cl)c(C(F)(F)F)c1 [Exe. 016] | 20100 |  |
| 4.6 | 9.4 |  | Cc1cc(Oc2ccnc(NC(=O)C3CC3)c2)ncc1NC(=O)Nc1ccc(Cl)c(C(F)(F)F)c1 [Exe. 018] | 4040 |  |
| 39 | 18.2 |  | N#Cc1cc(NC(=O)Nc2ccc(Cl)c(C(F)(F)F)c2)ccc1Oc1ccnc(NC(=O)C2CC2)c1 [Exe. 026] | 900 |  |
|  |  | 66.5 | O=C(Nc1ccc(Oc2ccnc(NC(=O)C3CC3)c2)c(F)c1)Nc1ccc(Cl)c(C(F)(F)F)c1 [Exe. 027] |  | 2390 |
| 115 | 26 |  | Cc1cc(Oc2cc(NC(=O)C3CC3)ncn2)ccc1NC(=O)Nc1cc(NC(C)C)cc(C(F)(F)F)c1 [Exe. 032, N-[6-[4-[[3-(isopropylamino)-5-(trifluoromethyl)phenyl]carbamoylamino]-3-methyl-phenoxy]pyrimidin-4-yl]cyclopropanecarboxamide] | 20000 |  |
| 5 | 5.6 |  | CC(F)(F)c1cncc(NC(=O)Nc2ccc(Oc3ccnc(NC(=O)C4CC4)c3)cc2F)c1 [Exe. 033] | 35 |  |
| 290 | 15.6 |  | CN1CCC(c2ccc(NC(=O)Nc3ccc(Oc4ccnc(NC(=O)C5CC5)c4)c(F)c3)cc2C(F)(F)F)CC1 [Exe. 036] | 2400 |  |
| 54.4 | 14.2 |  | O=C(Nc1cc(OC2CCOC2)cc(C(F)(F)F)c1)Nc1ccc(Oc2ccnc(NC(=O)C3CC3)c2)c(F)c1 (centres unmarked) [Exe. 039] | 500 |  |
| 134 | 15.2 |  | CN1CCC(C(=O)c2cc(NC(=O)Nc3ccc(Oc4ccnc(NC(=O)C5CC5)c4)c(F)c3)cc(C(F)(F)F)c2)CC1 [Exe. 040] | 640 |  |
| 94 | 11.5 |  | Nc1nnc(-c2cc(NC(=O)Nc3ccc(Oc4ccnc(NC(=O)C5CC5)c4)c(F)c3)cc(C(F)(F)F)c2)o1 [Exe. 042] | 3560 |  |
| 30 | 18.1 |  | COCC(=O)Nc1cc(NC(=O)Nc2ccc(Oc3ccnc(NC(=O)C4CC4)c3)c(F)c2)cc(C(F)(F)F)c1 [Exe. 043] | 604 |  |
| 40 | 15.4 |  | CC(c1cc(NC(=O)Nc2ccc(Oc3ccnc(NC(=O)C4CC4)c3)c(F)c2)cc(C(F)(F)F)c1)N1CCN(C)CC1 (centres unmarked) [Exe. 045] | 108 |  |
| 58.2 | 16.6 |  | O=C(Nc1cc(N2CCC(F)CC2)cc(C(F)(F)F)c1)Nc1ccc(Oc2ccnc(NC(=O)C3CC3)c2)c(F)c1 [Exe. 046] | 640 |  |
| 51.3 | 9.9 |  | O=C(Nc1cc(NC2CC2)cc(C(F)(F)F)c1)Nc1ccc(Oc2ccnc(NC(=O)C3CC3)c2)c(F)c1 [Exe. 049] | 642 |  |
| 110 | 12.8 |  | CCOC(=O)C(C)(C)CNc1cc(NC(=O)Nc2ccc(Oc3ccnc(NC(=O)C4CC4)c3)c(F)c2)cc(C(F)(F)F)c1 [Exe. 050] | 2230 |  |
| 97.6 | 15.3 |  | CC(C)N1CCN(c2cc(NC(=O)Nc3ccc(Oc4ccnc(NC(=O)C5CC5)c4)c(F)c3)cc(C(F)(F)F)c2)CC1 [Exe. 054] | 340 |  |
| 284 | 14.5 |  | CCN1CCN(c2cc(NC(=O)Nc3ccc(Oc4ccnc(NC(=O)C5CC5)c4)c(F)c3)cc(C(F)(F)F)c2)CC1 [Exe. 055] | 420 |  |
| 75.9 |  |  | CC(c1cc(NC(=O)Nc2ccc(Oc3ccnc(NC(=O)C4CC4)c3)c(F)c2)cc(C(F)(F)F)c1)N1CCNCC1 (centres unmarked) [Exe. 067, N-[4-[2-fluoro-4-[[3-(1-piperazin-1-ylethyl)-5-(trifluoromethyl)phenyl]carbamoylamino]phenoxy]-2-pyridyl]cyclopropanecarboxamide] | 235 |  |
|  |  |  | Cc1cc(Oc2cc(NC(=O)C3CC3)ncn2)ccc1NC(=O)Nc1cc(C2CCN(C)CC2)cc(C(F)(F)F)c1 [Exe. 073] | 2970 |  |

| Structure (SMILES) | IC50 [1, 4] [nM] | IC50 [3] [nM] | IC50 ([1]; MDA-MB-231 cells) [nM] | IC50 [2, 5] [nM] | IC50 ([2]; PLC-PRF-5 cells) [nM] |
| --- | --- | --- | --- | --- | --- |
| O=C(Nc1cc(N2CCN(CCF)CC2)cc(C(F)(F)F)c1)Nc1ccc(Oc2ccnc(NC(=O)C3CC3)c2)c(F)c1 [Exe. 053] | 65.1 | 13 |  | 686 |  |
